Experimental data published in the supplement of paper PMC11451515.

Columns and labels:
Conditions in all cases: 48 h
NOMO1 [1] = test: cell viability relative to DMSO control; higher = less cytotoxic
Procedure, shortened: (§1)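 Cells were incubated for 48 h at 37°C before CellTiter-Glo One luminescence was read. The cells were NOMO1 or SEM (500 cells/well) or P12-Ichikawa (1000 cells/well) leukemia cells, adapted for at least four passages in each medium and seeded in 1536-well plates (5 μl). Dosing used library compounds in DMSO applied by pin over 11 threefold points, 47 μM to 0.79 nM. Viability is the per-plate percentage of DMSO wells, with cell-free wells as background.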

P12-Ichikawa [2] = test: as above
Procedure, shortened: as §1

SEM cells [3] = test: as above
Procedure, shortened: as §1

NOMO1 [4] = test: AUC of viability dose-response curve (% viability x log10 dose units); higher = less sensitive
Procedure, shortened: (§2)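 Leukemia cells adapted to each medium were seeded in 1536-well plates (500 or 1000 cells/well). They were dosed with library compounds in DMSO at 11 threefold doses, 47 μM to 0.79 nM, for 48 h at 37°C. CellTiter-Glo One luminescence was normalised per plate to DMSO and cell-free wells. Area under the curve was integrated by trapezoidal rule over log10 doses on a four-parameter log-logistic fit; curves exceeding full viability were scaled and curves failing quality control removed.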

P12-Ichikawa [5] = test: as above
Procedure, shortened: as §2

SEM cells [6] = test: as above
Procedure, shortened: as §2

CC1(C)Cc2c(sc(NC(=S)NC(=O)c3ccccc3)c2C(=O)O)CO1
cell viability [%]
Conditions	NOMO1 [1]	P12-Ichikawa [2]	SEM cells [3]
HPLM + 10% dialyzed FBS, 0.000781 µM	102	99.1	74.1
HPLM + 10% dialyzed FBS, 0.00234 µM	107	109	89.5
HPLM + 10% dialyzed FBS, 0.00702 µM	100	107	91.9
HPLM + 10% dialyzed FBS, 0.0211 µM	117	110	89.1
HPLM + 10% dialyzed FBS, 0.0632 µM	120	109	96.7
HPLM + 10% dialyzed FBS, 0.19 µM	114	115	98.3
HPLM + 10% dialyzed FBS, 0.569 µM	115	118	97.6
HPLM + 10% dialyzed FBS, 1.71 µM	112	114	108
HPLM + 10% dialyzed FBS, 5.12 µM	114	101	101
HPLM + 10% dialyzed FBS, 15.4 µM	94.5	99.2	88.3
HPLM + 10% dialyzed FBS, 46.1 µM	95.1	101	101
RPMI 5 mM glucose + 10% FBS, 0.000781 µM	115	103	94
RPMI 5 mM glucose + 10% FBS, 0.00234 µM	111	110	109
RPMI 5 mM glucose + 10% FBS, 0.00702 µM	105	110	108
RPMI 5 mM glucose + 10% FBS, 0.0211 µM	101	116	93.1
RPMI 5 mM glucose + 10% FBS, 0.0632 µM	105	119	112
RPMI 5 mM glucose + 10% FBS, 0.19 µM	96.6	118	112
RPMI 5 mM glucose + 10% FBS, 0.569 µM	118	121	110
RPMI 5 mM glucose + 10% FBS, 1.71 µM	106	112	113
RPMI 5 mM glucose + 10% FBS, 5.12 µM	115	110	101
RPMI 5 mM glucose + 10% FBS, 15.4 µM	101	108	105
RPMI 5 mM glucose + 10% FBS, 46.1 µM	91.5	106	106
RPMI 5 mM glucose + 10% dialyzed FBS, 0.000781 µM	87.7	103	65.2
RPMI 5 mM glucose + 10% dialyzed FBS, 0.00234 µM	102	112	84
RPMI 5 mM glucose + 10% dialyzed FBS, 0.00702 µM	96.3	108	85.4
RPMI 5 mM glucose + 10% dialyzed FBS, 0.0211 µM	108	110	87.8
RPMI 5 mM glucose + 10% dialyzed FBS, 0.0632 µM	109	115	96.6
RPMI 5 mM glucose + 10% dialyzed FBS, 0.19 µM	103	109	88.3
RPMI 5 mM glucose + 10% dialyzed FBS, 0.569 µM	121	126	95.4
RPMI 5 mM glucose + 10% dialyzed FBS, 1.71 µM	109	122	91.7
RPMI 5 mM glucose + 10% dialyzed FBS, 5.12 µM	101	114	89.6
RPMI 5 mM glucose + 10% dialyzed FBS, 15.4 µM	101	105	102
RPMI 5 mM glucose + 10% dialyzed FBS, 46.1 µM	102	106	88.5

AUC of viability dose-response curve
Conditions	NOMO1 [4]	P12-Ichikawa [5]	SEM cells [6]
HPLM + 10% dialyzed FBS	466	469	452
RPMI 5 mM glucose + 10% FBS	456	476	474
RPMI 5 mM glucose + 10% dialyzed FBS	458	470	427

Cc1cccc(N(C)C(=S)Oc2ccc3ccccc3c2)c1
cell viability [%]
Conditions	NOMO1 [1]	P12-Ichikawa [2]	SEM cells [3]
HPLM + 10% dialyzed FBS, 0.000781 µM	110	98.1	79.4
HPLM + 10% dialyzed FBS, 0.00234 µM	120	114	91.8
HPLM + 10% dialyzed FBS, 0.00702 µM	116	109	83.8
HPLM + 10% dialyzed FBS, 0.0211 µM	124	109	98.8
HPLM + 10% dialyzed FBS, 0.0632 µM	117	118	90.7
HPLM + 10% dialyzed FBS, 0.19 µM	112	94.2	104
HPLM + 10% dialyzed FBS, 0.569 µM	123	107	96.8
HPLM + 10% dialyzed FBS, 1.71 µM	121	109	84.7
HPLM + 10% dialyzed FBS, 5.12 µM	100	111	106
HPLM + 10% dialyzed FBS, 15.4 µM	92	111	96.5
HPLM + 10% dialyzed FBS, 46.1 µM	110	109	87.2
RPMI 5 mM glucose + 10% FBS, 0.000781 µM	99.9	109	79.7
RPMI 5 mM glucose + 10% FBS, 0.00234 µM	94.2	107	102
RPMI 5 mM glucose + 10% FBS, 0.00702 µM	106	111	96.1
RPMI 5 mM glucose + 10% FBS, 0.0211 µM	107	112	90.8
RPMI 5 mM glucose + 10% FBS, 0.0632 µM	108	113	108
RPMI 5 mM glucose + 10% FBS, 0.19 µM	98.8	116	86.7
RPMI 5 mM glucose + 10% FBS, 0.569 µM	97.2	116	110
RPMI 5 mM glucose + 10% FBS, 1.71 µM	97.3	112	109
RPMI 5 mM glucose + 10% FBS, 5.12 µM	94.5	107	107
RPMI 5 mM glucose + 10% FBS, 15.4 µM	103	99.6	99.4
RPMI 5 mM glucose + 10% FBS, 46.1 µM	99.6	92.4	85
RPMI 5 mM glucose + 10% dialyzed FBS, 0.000781 µM	98.1	95.1	95.6
RPMI 5 mM glucose + 10% dialyzed FBS, 0.00234 µM	105	101	114
RPMI 5 mM glucose + 10% dialyzed FBS, 0.00702 µM	99.8	104	102
RPMI 5 mM glucose + 10% dialyzed FBS, 0.0211 µM	112	108	108
RPMI 5 mM glucose + 10% dialyzed FBS, 0.0632 µM	99.8	104	108
RPMI 5 mM glucose + 10% dialyzed FBS, 0.19 µM	95.2	109	96.7
RPMI 5 mM glucose + 10% dialyzed FBS, 0.569 µM	107	106	129
RPMI 5 mM glucose + 10% dialyzed FBS, 1.71 µM	110	109	117
RPMI 5 mM glucose + 10% dialyzed FBS, 5.12 µM	104	103	115
RPMI 5 mM glucose + 10% dialyzed FBS, 15.4 µM	101	104	101
RPMI 5 mM glucose + 10% dialyzed FBS, 46.1 µM	106	80.4	89

AUC of viability dose-response curve
Conditions	NOMO1 [4]	P12-Ichikawa [5]	SEM cells [6]
HPLM + 10% dialyzed FBS	460	469	445
RPMI 5 mM glucose + 10% FBS	470	466	470
RPMI 5 mM glucose + 10% dialyzed FBS	469	471	476

C[C@H]1C[C@H]2[C@@H]3CCC4=CC(=O)C=C[C@]4(C)[C@H]3C(=O)C[C@]2(C)[C@@]1(O)C(=O)CO
cell viability [%]
Conditions	NOMO1 [1]	P12-Ichikawa [2]	SEM cells [3]
HPLM + 10% dialyzed FBS, 0.000781 µM	89.9	91.4	77
HPLM + 10% dialyzed FBS, 0.00234 µM	80.3	96.5	81.5
HPLM + 10% dialyzed FBS, 0.00702 µM	81.2	93.1	77.8
HPLM + 10% dialyzed FBS, 0.0211 µM	103	95.6	88.9
HPLM + 10% dialyzed FBS, 0.0632 µM	86.3	88	70.6
HPLM + 10% dialyzed FBS, 0.19 µM	109	92.7	99.8
HPLM + 10% dialyzed FBS, 0.569 µM	98.9	87.6	96.5
HPLM + 10% dialyzed FBS, 1.71 µM	96	94.8	92.7
HPLM + 10% dialyzed FBS, 5.12 µM	86.8	88.3	88.7
HPLM + 10% dialyzed FBS, 15.4 µM	99.8	101	81.9
HPLM + 10% dialyzed FBS, 46.1 µM	83	93	9.17
RPMI 5 mM glucose + 10% FBS, 0.000781 µM	82.7	91.3	82.3
RPMI 5 mM glucose + 10% FBS, 0.00234 µM	90.2	98.1	81.3
RPMI 5 mM glucose + 10% FBS, 0.00702 µM	86.9	94	90.3
RPMI 5 mM glucose + 10% FBS, 0.0211 µM	91.6	90.7	78.8
RPMI 5 mM glucose + 10% FBS, 0.0632 µM	80.8	94.7	72.5
RPMI 5 mM glucose + 10% FBS, 0.19 µM	79.9	99.7	87
RPMI 5 mM glucose + 10% FBS, 0.569 µM	81.3	94.9	92.5
RPMI 5 mM glucose + 10% FBS, 1.71 µM	83.8	97.2	91.7
RPMI 5 mM glucose + 10% FBS, 5.12 µM	86.5	100	71.3
RPMI 5 mM glucose + 10% FBS, 15.4 µM	86.3	95.7	58.5
RPMI 5 mM glucose + 10% FBS, 46.1 µM	92.2	85.3	7.21
RPMI 5 mM glucose + 10% dialyzed FBS, 0.000781 µM	83	83.7	93.2
RPMI 5 mM glucose + 10% dialyzed FBS, 0.00234 µM	78.4	91.7	85.2
RPMI 5 mM glucose + 10% dialyzed FBS, 0.00702 µM	77.9	80.1	83.4
RPMI 5 mM glucose + 10% dialyzed FBS, 0.0211 µM	56.5	89.7	91.1
RPMI 5 mM glucose + 10% dialyzed FBS, 0.0632 µM	78.8	84	77.5
RPMI 5 mM glucose + 10% dialyzed FBS, 0.19 µM	82.4	85.6	101
RPMI 5 mM glucose + 10% dialyzed FBS, 0.569 µM	99.8	82.7	93.6
RPMI 5 mM glucose + 10% dialyzed FBS, 1.71 µM	85.1	83.7	97.6
RPMI 5 mM glucose + 10% dialyzed FBS, 5.12 µM	94.4	82.2	85.4
RPMI 5 mM glucose + 10% dialyzed FBS, 15.4 µM	78	85.6	74.4
RPMI 5 mM glucose + 10% dialyzed FBS, 46.1 µM	93.2	70.5	7.99

AUC of viability dose-response curve
Conditions	NOMO1 [4]	P12-Ichikawa [5]	SEM cells [6]
HPLM + 10% dialyzed FBS	442	443	390
RPMI 5 mM glucose + 10% FBS	407	454	366
RPMI 5 mM glucose + 10% dialyzed FBS	394	402	401
